Results on five molecules are retold here after patent publication US20230255954A1, “INTERLEUKIN 33 (IL-33) INHIBITION FOR TREATMENT OF CANCER, FIBROSIS AND INFLAMMATION” (The General Hospital Corporation, priority 2020, published 2023).

Assay [1] relates to mouse Il33 gene promoter (IL-33 promoter-luci reporter). Briefly: IL-33 promoter luciferase screen of FDA-approved Drug Library. The note with it: 10 μM, 24 hours; IL-33 promoter-luci vs control-luci stable Pam212 cells; 1056 molecules tested. Format: cell-based. The protocol: Pam212 cells were grown at 37° C. in DMEM (Thermo Fisher Scientific, Waltham, Mass., catalog no. 11995065) supplemented with 10% fetal bovine serum (Thermo Fisher Scientific, catalog no. 26140079), 1× penicillin-streptomycin-glutamine (Thermo Fisher Scientific, catalog no. 10378016), 1×MEM non-essential amino acids solution (Thermo Fisher Scientific, catalog no. 11140050), 1×HEPES (Thermo Fisher Scientific, catalog no. 15630080) and 0.1% 2-Mercaptoethanol (Thermo Fisher Scientific, catalog no. 21985023). PyMT cell lines (derived from a primary breast tumor of MMTV-PyMrg mouse on a C57BL/6 background) were grown at 37° C. in RPMI Medium 1640 (Thermo Fisher Scientific, catalog no. 11875093) supplemented with 10% fetal bovine serum, 1× penicillin-streptomycin-glutamine and 0.1% 2-Mercaptoethanol. IL-33 promoter-luci vector (GeneCopoeia, Rockville, Md., catalog no. MPRM3494-PG02) or Control-luci vector (deletion form of IL-33 promoter region from IL-33 promoter-luci vector) or Poly (I:C) (Invivogen, San Diego, Calif., catalog no. tlrl-pic) in Pam212 cells were performed using Lipofectamine 2000 (Thermo Fisher Scientific, catalog no. 11668019) according to the manufacturer's instructions.
After transfection of plasmids in Pam212 cells, cells were incubated with 3 μg/ml of puromycin (Invivogen, San Diego, Calif., catalog no. ant-pr-1) for positive transfected cell selection. After following 2 days, medium was changed new puromycin contained medium for further selection. After following 2 days, cells were moved to new plate with puromycin contained medium. Puromycin selection was repeated for five times more.
1000 stable cells were seed to 384 wells (Corning, Glendale, Ariz., catalog no. 3570) and each of plate was incubated 24 hours. Following day, 10 μM of FDA-approved Drug Library compounds (Selleckchem, Houston, Tex., catalog no. L1300) were added to each well. After 24 hours, 5 μL of luciferase buffer from Pierce Gaussia luciferase glow assay kit (Thermo Fisher Scientific, Waltham, Mass., catalog no. 16160) were added each well and incubated for 5 min. Each plate was read and measured with luminescence by EnVision 2014 plate reader (Perkin Elmer, Waltham, Mass., catalog no. 2014 EnVision).
To make small molecule screening platform, we generated both IL-33 promoter-luci and control-luci over-expressed stable epithelial cell line (Pam212) by multiple puromycin selection strategy (FIG. 10A). To find molecules that can inhibit IL-33 expression, we tested 1056 FDA-approved small molecules against our reporter cell line. […] To find bona fide inhibitors of IL-33, we checked RNA level of Il33 by qPCR in cells treated with inducer of IL-33 expression, Poly (I:C). After cells were treated by Poly (I:C), RNA level of Il33 was increased compared to carrier group. However, Il33 RNA level was decreased by pitavastatin and tropisetron in Poly I:C-treated cells (FIGS. 10C and D). […] Finally, endogenous IL-33 protein level was decreased after treatment with pitavastatin in a dose-dependent manner (FIG. 10F). Therefore, pitavastatin is a small inhibitor molecule of IL-33.

The subject of assay [2] is Il33 expression induced by Poly (I:C) in Pam212 cells. In words: Il33 RNA by qPCR in Poly (I:C)-treated Pam212 cells. It is filed as cell-based, mouse. The protocol: (§1) Pam212 cells were grown at 37° C. in DMEM (Thermo Fisher Scientific, Waltham, Mass., catalog no. 11995065) supplemented with 10% fetal bovine serum (Thermo Fisher Scientific, catalog no. 26140079), 1× penicillin-streptomycin-glutamine (Thermo Fisher Scientific, catalog no. 10378016), 1×MEM non-essential amino acids solution (Thermo Fisher Scientific, catalog no. 11140050), 1×HEPES (Thermo Fisher Scientific, catalog no. 15630080) and 0.1% 2-Mercaptoethanol (Thermo Fisher Scientific, catalog no. 21985023). […]
(§2) Mouse dorsal skin samples were homogenized and lysed in RLT lysis solution (QIAGEN, catalog no. 79216)/0.1% MeOH using Mini-BeadBeater-8 (BioSpec Products, Inc., Bartlesville, Okla.). Total RNA was extracted using an RNeasy micro kit and quantified using NanoDrop ND-1100 (NanoDrop Technologies, Wilmington, Del.). cDNA samples were synthesized from 1 μg of total RNA using Invitrogen SuperScripts III Reverse Transcriptase (Thermo Fisher Scientific, catalog no. 18080085). Expression levels of all cDNA samples were determined with LightCycler 480 system (Roche Molecular Systems Inc., Pleasanton, Calif.) using TaqMan Universal Master Mix II (Thermo Fisher Scientific, catalog no. 44-400-40). […]
A general note: Real-time PCR tracks product formation cycle by cycle.

Assay [3] deals with endogenous Il33 expression in PyMT breast cancer cell line. Briefly: Endogenous Il33 RNA in PyMT breast cancer cell line. Format: cell-based, mouse. The protocol:
as §1, §2

Assay [4] addresses T1, RUNX2 transcription factor (mouse, UniProt Q08775 1-607, limits assumed).
T1 construct: Detected by immunoblot (anti-RUNX2 clone D1L7F) after immunoprecipitation of IL-33; The species follows from the mouse cell lines; also called endogenous RUNX2
Briefly: immunoprecipitation with anti-IL-33 antibody from transfected Pam212 lysate, immunoblot for RUNX2. On the procedure: (G) Immunoblot for interaction between nuclear IL-33 and RUNX2. After Pam212 cells were transfected with IL-33 full length or cytokine domain for 24 hours, cell lysates were subjected to immunoprecipitation with anti-IL-33 antibody followed by immunoblot analysis.
Cell lysates were prepared in buffer-A consisting of 50 mM Tris-HCL (pH 8.0), 150 mM NaCl, 0.5% NP-40 and 1× protease inhibitor cocktail. After confirming the concentration of total proteins, the cell lysates were incubated with IL-33 (Nessy-1) overnight at 4° C. and incubated with 30 μL of 50% slurry of protein A-conjugated Sepharose (Cell Signaling Technology, Danvers, Mass., catalog no. 9863S) for the next 2 hours. The samples were precipitated, washed three times with buffer-A containing 300 mM NaCl. Samples were added to 25 μL SDS sampling buffer (Boston Bioproducts, catalog no. BP-111R) and boiled at 95° C. for 10 min. Samples were subjected to SDS-polyacrylamide gel electrophoresis followed by immunoblot analysis.

T1 sequence (Q08775 whole entry): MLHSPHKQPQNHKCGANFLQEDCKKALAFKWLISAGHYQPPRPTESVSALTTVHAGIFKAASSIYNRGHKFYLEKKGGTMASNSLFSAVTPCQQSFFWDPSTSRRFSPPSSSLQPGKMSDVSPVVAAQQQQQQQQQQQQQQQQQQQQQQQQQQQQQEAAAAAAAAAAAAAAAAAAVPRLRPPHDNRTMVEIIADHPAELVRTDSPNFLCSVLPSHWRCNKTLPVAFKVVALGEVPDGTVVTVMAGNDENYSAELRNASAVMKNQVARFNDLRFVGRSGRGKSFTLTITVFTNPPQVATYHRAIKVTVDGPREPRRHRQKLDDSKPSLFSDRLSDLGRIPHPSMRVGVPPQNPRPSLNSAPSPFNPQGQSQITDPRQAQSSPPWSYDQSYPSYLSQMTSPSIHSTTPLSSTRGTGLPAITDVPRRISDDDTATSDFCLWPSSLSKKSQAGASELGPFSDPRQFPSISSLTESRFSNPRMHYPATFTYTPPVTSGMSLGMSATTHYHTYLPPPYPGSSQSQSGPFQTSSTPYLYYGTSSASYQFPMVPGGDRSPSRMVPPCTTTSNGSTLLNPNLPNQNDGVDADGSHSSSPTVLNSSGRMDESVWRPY

For the molecule `CCCSc1nc(N[C@@H]2C[C@H]2c2ccc(F)c(F)c2)c2nnn([C@@H]3C[C@H](OCCO)[C@@H](O)[C@H]3O)c2n1` [ticagrelor], the “IL-33/Control luminescence ratio (inhibitory effect against IL-33 reporter)” value in assay [1] is reported as “small molecule candidates”.
`CN1[C@@H]2CC[C@H]1C[C@@H](OC(=O)c1c[nH]c3ccccc13)C2` [tropisetron]: in assay [2], the “Il33 RNA level” value is “decreased”. The “IL-33/Control luminescence ratio (inhibitory effect against IL-33 reporter)” value in assay [1] is “small molecule candidates”. In assay [3], the “endogenous Il33 RNA level” value is on record as “inhibitory effect”.
Regarding `CCCCCCCCCCCCCCCC[N+](C)(C)C` [cetrimonium bromide], in assay [1], the “IL-33/Control luminescence ratio (inhibitory effect against IL-33 reporter)” value was “small molecule candidates”.
Turning to `CC1(C)[C@@H](O[C@H]2O[C@H](C(=O)O)[C@@H](O)[C@H](O)[C@H]2O[C@@H]2O[C@H](C(=O)O)[C@@H](O)[C@H](O)[C@H]2O)CC[C@]2(C)[C@H]3C(=O)C=C4[C@@H]5C[C@@](C)(C(=O)O)CC[C@]5(C)CC[C@@]4(C)[C@]3(C)CC[C@@H]12` [ammonium glycyrrhizinate], in assay [1], the “IL-33/Control luminescence ratio (inhibitory effect against IL-33 reporter)” value is recorded as “small molecule candidates”.

B1: HA-IL-33 cytokine domain (other, mouse, UniProt Q8BVZ5 109-266, looked up)
chain: SIQGTSLLTQSPASLSTYNDQSVSFVLENGCYVINVDDSGKDQEQDQVLLRYYESPCPASQSGDGVDGKKLMVNMSPIKDTDIWLHANDKDYSVELQRGDVSPPEQAFFVLHKKSSDFVSFECKNLPGTYIGVKDNQLALVEEKDESCNNIMFKLSKI
notes: domain: cytokine domain; Overexpressed in Pam212 cells for 24 hours; localized to the cytoplasm; not shown: HA tag from the pcDNA3.1-HA vector
For B1, the binding result in assay [4] is “no binding”.
